Values after ≈ are worked out from the molar mass of the structure shown.

The conditions of this data set: buffer; pH 7.4; 200.0 µM.
`COc1ccc(CC(C)Nc2ccccc2F)cc1` (centres undefined) displayed a solubility (kinetic) of less than 0.6 µg/mL. Next, `CNC(=S)Nc1cccc(C(=O)OC)c1`: greater than 33.6 µg/mL. Under `CC(C)(C)/C(O)=C/c1nc2ccccc2oc1=O` stands 36.8 µg/mL (≈ 150 µM). Next, `NC(=O)c1sc2nc(-c3cccs3)ccc2c1N`: 6.1 µg/mL (≈ 22.2 µM); `Cc1ccc(C(=O)NCCCNC(=O)COc2ccc(C)c(C)c2)cn1`: 49.1 µg/mL (≈ 138 µM); `CCCCOc1cccc(C(=O)Nc2ccccc2N2CCCC2)c1`: 1.2 µg/mL (≈ 3.55 µM). As to `O=C(Nc1cccc(Br)c1)C1CCCC1`, the solubility (kinetic) is greater than 40.2 µg/mL.

In the case of `O=C1COc2ccc(C(=O)COC(=O)c3ccc(F)cc3Cl)cc2N1`, the solubility (kinetic) stood at 5.3 µg/mL (≈ 14.6 µM).

Turning to `CC(NC(=O)COc1ccccc1)C(=O)N1CCN(c2ccc(F)cc2)CC1` (centres undefined), the solubility (kinetic) is greater than 57.8 µg/mL. Under `CN(C)C(CNc1ccc(C(F)(F)F)cn1)c1ccccc1` (centres undefined) stands greater than 46.4 µg/mL. In the case of `COc1ccc(Br)cc1/C=C/C(=O)OCC(=O)NCCc1ccc(S(N)(=O)=O)cc1`, the kinetic solubility came to 13.8 µg/mL (≈ 27.7 µM). Next, `CNC(=O)COC(=O)CNC(=O)c1cc(Cl)cc([N+](=O)[O-])c1`: greater than 49.5 µg/mL; `CCOC1=C/C(=C/c2c(N)n3oc(C)cc3nc2=O)C=CC1=O`: 11.9 µg/mL (≈ 38 µM); `COc1ccc(COCC(O)CN2CCC(C(N)=O)CC2)cc1` (centres undefined): greater than 48.4 µg/mL.

Consider `Clc1cccc(-c2nc(NCC3CCCO3)c3ccccc3n2)c1` (centres undefined), for which the solubility (kinetic) turned out to be 1.2 µg/mL (≈ 3.53 µM). In turn, `COc1ccc(C(=O)NCCNc2nc3c(C)cccc3cc2C#N)cc1` displayed a solubility (kinetic) of 0.4 µg/mL (≈ 1.11 µM). Under `CCNC(=O)COC(=O)CCC(=O)c1ccc(F)cc1` stands greater than 42.2 µg/mL; under `COc1ccc(OC)c(NC(=O)COC(=O)Cc2ccsc2)c1`, 36.2 µg/mL (≈ 108 µM); under `Cc1nc(C(=O)N2CCCC(C(=O)c3ccc(Cl)cc3)C2)cs1` (centres undefined), greater than 52.3 µg/mL. Under `CC(=O)c1sccc1NC(=O)c1ccccc1C(=O)O` stands greater than 43.4 µg/mL; under `Cc1csc(NC(=O)[C@@H]2CCCN2C(=O)c2cccs2)n1`, 44.2 µg/mL (≈ 138 µM).

`COc1ccc(/C(C)=N/N2CCOCC2)c(O)c1` gave a solubility (kinetic) greater than 37.5 µg/mL. Next, `Cc1cccc(NC(=S)NC(=O)c2ccco2)c1C`: 36.7 µg/mL (≈ 134 µM). Under `CN(C)CCCNC(=O)N1c2ccccc2C=Cc2ccccc21.Cl` stands greater than 53.7 µg/mL. Under `Cc1cccc(NC(=O)Cn2c(=O)oc3ccccc32)n1` stands greater than 42.5 µg/mL; under `Nc1nc(CCl)nc(N(c2ccccc2)c2ccccc2)n1`, 7.5 µg/mL (≈ 24.1 µM); under `C[C@H](NC(=O)c1ccc(C(C)(C)C)cc1)C(=O)N1CCOCC1`, greater than 47.8 µg/mL.

With `CCOC(=O)c1c(O)c2ccccc2n(C)c1=O`, the solubility (kinetic) was greater than 37.1 µg/mL. `COc1cccc(NC(=S)N(CCN(C)C)C(C)c2cccnc2)c1` (centres undefined) displayed a solubility (kinetic) greater than 53.8 µg/mL. Next, `CSc1cccc(-n2ccc(=O)c(C)c2C)c1`: greater than 36.8 µg/mL. For `COc1ccccc1N1CN(CCc2ccccc2)CNC1=S`, the kinetic solubility came to 45.4 µg/mL (≈ 139 µM). Next, `Cn1c(C(=O)O)ccc1S(=O)(=O)N(Cc1ccccc1)Cc1ccccc1`: greater than 57.7 µg/mL; `CCCCS(=O)(=O)N1CCC(C(=O)NCC2CCCO2)CC1` (centres undefined): 46 µg/mL (≈ 138 µM).

In the case of `CCOC(=O)CC(=O)NC(CC(=O)OC)c1ccc(Br)cc1` (centres undefined), the solubility (kinetic) is 45.7 µg/mL (≈ 123 µM). Next, `O=C(O)C1C2CCC(C2)C1C(=O)Nc1ccccc1` (centres undefined): 38.8 µg/mL (≈ 150 µM). Under `COC(=O)c1c(C)[nH]c(C(=O)OCc2csc(CC(=O)Nc3ccccc3C)n2)c1C` stands 7.4 µg/mL (≈ 16.8 µM); under `CC(=O)Nc1ccc(S(=O)(=O)N[C@@H](C)C(=O)NC2CCCc3ccccc32)cc1` (some centres undefined), 30.3 µg/mL (≈ 72.9 µM); under `CC(C)[C@@H](N)C(=O)N/N=C/c1ccc2nccnc2c1.Cl`, greater than 46.2 µg/mL. Next, `COCCN(CCOc1cc(C)cc(C)c1)Cc1ccc(Cl)cc1`: 5.6 µg/mL (≈ 16.1 µM); `N#C/C(=C(/O)CCl)c1nc(-c2ccccc2)cs1`: 41.3 µg/mL (≈ 149 µM). `CCOc1cc2c(C#N)c(N3CCCCC3)nc(N)c2c(N)n1` displayed a solubility (kinetic) of 10.6 µg/mL (≈ 33.9 µM). Next, `O=C(CCn1c(=S)oc2ccccc21)NC1CCCCC1`: 1.6 µg/mL (≈ 5.26 µM); `COCC(=O)Nc1nc(-c2ccc([N+](=O)[O-])cc2)cs1`: 7.3 µg/mL (≈ 24.9 µM). In turn, `CN1CCN(c2ncnc3scc(-c4ccccc4Cl)c23)CC1` showed a kinetic solubility greater than 51.7 µg/mL. Next, `CCC(=O)N/C(N)=N/c1nc2ccccc2o1`: 14.8 µg/mL (≈ 63.7 µM); `C=CCC1(C#N)C(=S)NC(C)=C(C(=O)OCC)C1c1ccccc1` (centres undefined): greater than 51.1 µg/mL.

On to `c1ccc(-n2cnc3ccccc32)cc1`, for which the solubility (kinetic) stood at 24.6 µg/mL (≈ 127 µM). Under `Cc1c(Br)ccc(NC(=O)COc2ccccc2C(N)=O)c1C` stands less than 0.4 µg/mL; under `CC1(C)C(C(=O)N2CCN(c3ccc(Cl)cc3)CC2)C1(C)C`, 0.5 µg/mL (≈ 1.56 µM); under `Cn1cccc1C(=O)OCC(=O)Nc1sccc1C#N`, 4.2 µg/mL (≈ 14.5 µM). Next, `C[C@H](NC(=O)Cc1cccc2ccccc12)C(=O)N1CCOCC1`: greater than 49 µg/mL.

Consider `O=S(=O)(c1ccc(Cl)s1)N1CCNCC1`, for which the kinetic solubility is greater than 40 µg/mL. `CC(Oc1ccccc1)C(=O)N1CCN(c2ncccn2)CC1` (centres undefined): the kinetic solubility is greater than 46.9 µg/mL.

As to `O=c1cc(CSCc2ccc(Cl)cc2)[nH]c(=O)[nH]1`, the solubility (kinetic) came out at 41.3 µg/mL (≈ 146 µM).

Compound `Cc1ccc(NC(=O)OCc2cc(-c3ccccc3)on2)cc1` yielded a solubility (kinetic) of less than 0.3 µg/mL. Next, `S=C(Nc1ccc(Cl)cc1)Nc1ccc2c(c1)OCCO2`: 8.9 µg/mL (≈ 27.7 µM). Under `Cc1nccc(-c2cccc(NC(=O)Nc3ccc(Cl)cc3)c2)n1` stands 0.6 µg/mL (≈ 1.77 µM); under `Cc1ccc(OCC(=O)NCCCNC(=O)COc2ccc(C)cc2)cc1`, 15.1 µg/mL (≈ 40.8 µM); under `Cc1noc(C)c1COc1cccc(C(=O)NC(C)(C)C)c1`, greater than 45.4 µg/mL. Compound `Cc1cccc(C)c1NC(=O)c1cccc(C(=O)Nc2c(C)cccc2C)n1` yielded a kinetic solubility of 27.7 µg/mL (≈ 74.2 µM). Regarding `COc1cccc(OC)c1C(=O)Nc1ccncc1`, the kinetic solubility came out at 19 µg/mL (≈ 73.6 µM). `CC(=O)NC1C(O)OC(CO)C(O)C1O` (centres undefined) yielded a kinetic solubility greater than 33.2 µg/mL. Next, `Cc1c(C=O)c2ccccc2n1Cc1ccccc1`: 2.6 µg/mL (≈ 10.4 µM); `CCOC(=O)Nc1ccc2c(COC(=O)C(NS(=O)(=O)c3ccc(Cl)cc3)C(C)O)cc(=O)oc2c1` (centres undefined): 20.5 µg/mL (≈ 38 µM).

The compound `CC(C)[C@H](NC(=O)OCc1ccccc1)C(=O)OCC(=O)c1ccccc1` came in with a kinetic solubility of 16.1 µg/mL (≈ 43.6 µM). Under `O=C(/C=C/C=C/c1ccccc1)CC1(O)C(=O)Nc2ccccc21` (centres undefined) stands greater than 47.9 µg/mL; under `NC(=O)c1sc2nc(-c3ccccc3)ccc2c1N`, 1 µg/mL (≈ 3.71 µM); under `COCCNC(=O)/C(C#N)=C/c1cccc(OCc2ccccc2)c1`, 21.2 µg/mL (≈ 63 µM). Next, `COc1cccc(NC(=O)c2c([N+](=O)[O-])cnn2C)c1`: greater than 41.4 µg/mL. With `COc1ccc(CN2CCc3c([nH]c4ccccc34)C2)cc1Br`, the solubility (kinetic) came out at 9.8 µg/mL (≈ 26.4 µM). Under `COc1cccc(C(=O)Nc2cc(Cl)c(O)c(Cl)c2)c1` stands 15 µg/mL (≈ 48.1 µM); under `CCc1nc(C)cn1S(=O)(=O)c1ccc(Br)cc1`, greater than 49.4 µg/mL; under `COc1ccc(NC(=S)N2CCN(Cc3ccc(C)cc3)CC2)cc1`, 0.4 µg/mL (≈ 1.13 µM). `O=C(CCNC(=O)c1ccccc1Cl)NCC1CCCO1` (centres undefined) came in with a kinetic solubility greater than 46.6 µg/mL. `O=C(NCc1ccccc1)c1csc(-c2cccnc2)n1` gave a kinetic solubility greater than 44.3 µg/mL. Next, `O=C(/C=C/c1cccc(Br)c1)N1CCN(c2ccccn2)CC1`: 4.6 µg/mL (≈ 12.4 µM); `CCCOc1ccc(CN2CCOCC2)cc1OC.Cl`: greater than 45.3 µg/mL; `S=C1Cc2ccccc2C(c2ccc(Cl)cc2)N1` (centres undefined): 4.9 µg/mL (≈ 17.9 µM).

On to `Cc1ccc(N2C(=O)CSC2c2cccnc2)c(Cl)c1` (centres undefined), for which the kinetic solubility was greater than 45.7 µg/mL. Under `O=C(O)c1ccccc1C(=O)NCCCn1ccnc1` stands greater than 41 µg/mL; under `CCN1CCCC1CNC(=O)CCc1nnc(CCC2CCCCC2)o1` (centres undefined), greater than 54.4 µg/mL; under `Cc1nc(C)c(C(=O)O)c(-c2ccsc2)c1C(=O)O`, greater than 41.6 µg/mL. Next, `CCOC(=O)c1c(CC(C)C)csc1NC(=O)c1ccccc1C(=O)O`: 54.1 µg/mL (≈ 144 µM). Next, `CCC(=O)Nc1nc(-c2cc([N+](=O)[O-])cs2)cs1`: 1 µg/mL (≈ 3.53 µM); `CCCN(CC1CC1)CC(O)c1ccccc1.O=C(O)C(=O)O` (centres undefined): greater than 48.5 µg/mL; `COc1cc2[nH]c(C(=O)NCCc3ccccc3)cc2c(OC)c1OC`: 20.3 µg/mL (≈ 57.3 µM). In turn, `COCCCNC(=S)Nc1c(C)cc(C)cc1C` registered a kinetic solubility of 37.2 µg/mL (≈ 140 µM). Under `CC(=O)CC(=O)C1C(=O)N(C)C(=O)N(C)C1=O` stands greater than 36 µg/mL; under `CCOc1c(C)cc(S(=O)(=O)NCc2ccccn2)c(C)c1C`, greater than 50.2 µg/mL. Under `O=C1CCN(S(=O)(=O)c2ccc(Br)cc2)CCN1` stands 39.1 µg/mL (≈ 117 µM); under `Cc1ccc(S(=O)(=O)NCCC(=O)NC2CCCCCC2)cc1C`, greater than 52.9 µg/mL. Next, `CC1CCCN(C(=O)CCCC(=O)N2CCCC(C)C2)C1` (centres undefined): greater than 44.2 µg/mL; `CCN1CCN(C(=O)/C=C/c2ccc(C)cc2)CC1`: greater than 38.8 µg/mL; `Cc1ccc(C(C)C)c(OCCN2CCc3ccccc3C2)c1.Cl`: less than 0.7 µg/mL. Compound `Br.COc1ccc(NC2=NCCCCC2)cc1` returned a solubility (kinetic) of 44.7 µg/mL. Next, `O=C(NNC1CC(=O)N(c2ccccc2)C1=O)c1cccnc1` (centres undefined): greater than 46.5 µg/mL.

`Cc1cc(Cl)cc(Cl)c1OCCN1CCCC1` displayed a kinetic solubility of 30.2 µg/mL (≈ 110 µM). Under `O=C(N/N=C/c1ccccc1Br)C1CC1` stands greater than 40.1 µg/mL; under `N#C/C(=C\c1c[nH]c2ccc(Br)cc12)c1ccccn1`, 0.8 µg/mL (≈ 2.47 µM); under `COC(=O)c1[nH]c2cc(OC)ccc2c1NC(=O)c1c(F)cccc1F`, 4.9 µg/mL (≈ 13.6 µM). Next, `CCOCCCn1c(=NC(C)=O)c(C#N)cc2c(=O)n3cccc(C)c3nc21`: 33 µg/mL (≈ 87 µM); `CN(CC(=O)Nc1c(Cl)cccc1Cl)C(=O)Cc1ccsc1`: greater than 53.6 µg/mL. Take `COc1ccc(C(=O)CCC(=O)Nc2cccnc2)cc1`: the solubility (kinetic) was greater than 42.6 µg/mL. Next, `O=C(NCCCn1ccnc1)c1ccc(-c2cccc(C(F)(F)F)c2)o1`: greater than 54.5 µg/mL.

By solubility (kinetic) is commonly meant solubility judged after dilution from a stock solution rather than from solid.
